Source: patent EP1763509B1, “ALPHA-HELICAL MIMETICS” (THE WALTER AND ELIZA HALL INSTITUTE OF MEDICAL RESEARCH, priority 2004, dated 2006)

Legend:
Bcl-wΔ29 = target: T1, Bcl-wΔ29 (Homo sapiens, UniProt Q92843); assay: Alphascreen GST competition binding assay, benzoylurea compounds vs Biotinylated Bim BH3-26 peptide on GST tagged Bclw ΔC29 protein; details: GST tagged Bclw ΔC29 protein 0.05 nM, Biotinylated Bim BH3-26 peptide 3.0 nM, 4 hours at room temperature; values marked a tested in a separate experiment; n.b. = not binding in the assay conditions
T1 construct: GST tagged Bclw ΔC29 protein
T1 sequence (Q92843 1-164 limits assumed): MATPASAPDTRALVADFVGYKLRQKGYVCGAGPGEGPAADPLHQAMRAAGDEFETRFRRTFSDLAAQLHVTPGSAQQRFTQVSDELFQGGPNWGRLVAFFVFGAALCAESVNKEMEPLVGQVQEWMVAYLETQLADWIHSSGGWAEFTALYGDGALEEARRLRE

Mcl-1 = Mcl-1 (Homo sapiens, UniProt Q07820); assay: Alphascreen GST competition binding assay, benzoylurea compounds vs Biotinylated Bak BH3 peptide on GST tagged Mcl-1 protein; details: GST tagged Mcl-1 protein 0.4 nM, Biotinylated Bak BH3 peptide 4.0 nM, 4 hours at room temperature; n.b. = not binding in the assay conditions
Bcl-xLΔ25 = target: T2, Bcl-xLΔ25 (Homo sapiens, UniProt Q07817); assay: Alphascreen GST competition binding assay, benzoylurea compounds vs Biotinylated Bim BH3-26 peptide on GST tagged Bcl-xL ΔC25 protein; details: GST tagged Bcl-xL ΔC25 protein 0.6 nM, Biotinylated Bim BH3-26 peptide 5.0 nM, 4 hours at room temperature; n.b. = not binding in the assay conditions
T2 construct: GST tagged Bcl-xL ΔC25 protein
T2 sequence (Q07817 1-208 limits assumed, stated change not applied): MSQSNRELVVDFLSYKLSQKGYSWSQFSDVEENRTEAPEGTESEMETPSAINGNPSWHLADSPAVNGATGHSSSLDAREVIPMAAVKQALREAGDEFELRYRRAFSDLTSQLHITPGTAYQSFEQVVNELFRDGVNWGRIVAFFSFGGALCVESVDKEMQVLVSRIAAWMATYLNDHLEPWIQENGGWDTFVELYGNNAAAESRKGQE

Mcl-1, sequence (Q07820 whole entry, species assumed): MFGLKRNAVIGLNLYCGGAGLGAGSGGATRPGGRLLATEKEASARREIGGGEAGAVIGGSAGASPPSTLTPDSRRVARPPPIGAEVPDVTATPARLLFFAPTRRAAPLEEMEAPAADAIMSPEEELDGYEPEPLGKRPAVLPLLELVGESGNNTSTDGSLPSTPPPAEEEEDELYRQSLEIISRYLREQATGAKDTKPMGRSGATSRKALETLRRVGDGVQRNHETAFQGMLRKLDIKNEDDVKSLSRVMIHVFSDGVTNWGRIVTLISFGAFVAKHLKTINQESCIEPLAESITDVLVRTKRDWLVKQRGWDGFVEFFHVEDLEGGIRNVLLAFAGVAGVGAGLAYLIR

| Compound | IC50 (Bcl-wΔ29) | IC50 (Mcl-1) | IC50 (Bcl-xLΔ25) |
| --- | --- | --- | --- |
| Cc1ccc(CN(C(=O)N[C@@H](CSCc2ccccc2)C(=O)O)C(=O)c2ccc(-c3ccccc3)cc2)cc1 [(82)] | 45 µM | 169 µM | 27 µM |
| CCCN(C(=O)N[C@@H](CSC(C)C)C(=O)O)C(=O)c1cccc(-c2ccccc2Cl)c1 [(99)] | 60 µM | 168 µM | 163 µM |
| CCCSC[C@H](NC(=O)N(CCC)C(=O)c1cccc(-c2ccccc2Cl)c1)C(=O)O [(97)] | 68 µM | 264 µM | 199 µM |

Now those with a lower IC50 (Bcl-wΔ29), led by results:

| IC50 (Bcl-wΔ29) | IC50 (Mcl-1) | IC50 (Bcl-xLΔ25) | Compound |
| --- | --- | --- | --- |
| 39 µM | 70 µM | 22 µM | CCCSC[C@H](NC(=O)N(CCC)C(=O)c1cccc(C#Cc2ccccc2)c1)C(=O)O [(90)] |
| 32 µM | 107 µM | 93 µM | CCCN(C(=O)N[C@@H](CSCC(C)C)C(=O)O)C(=O)c1cccc(-c2ccccc2Cl)c1 [(98)] |
| 26 µM | 53 µM | 27 µM | CCCN(C(=O)N[C@@H](CSc1ccccc1)C(=O)O)C(=O)c1cccc(C#Cc2ccccc2)c1 [(93)] |
| 18 µM | 52 µM | 48 µM | CCCN(C(=O)N[C@@H](CSc1ccccc1)C(=O)O)C(=O)c1cccc(-c2ccccc2Cl)c1 [(100)] |
